From patent US20170305893A1 (Thomas Helledays Stiftelse for Medicinsk Forskning, priority 2014, published 2017) come the findings set out here.

In the first assay the target is T1, DCTPP1 (Homo sapiens, UniProt Q9H773).
T1 sequence (Q9H773 1-170): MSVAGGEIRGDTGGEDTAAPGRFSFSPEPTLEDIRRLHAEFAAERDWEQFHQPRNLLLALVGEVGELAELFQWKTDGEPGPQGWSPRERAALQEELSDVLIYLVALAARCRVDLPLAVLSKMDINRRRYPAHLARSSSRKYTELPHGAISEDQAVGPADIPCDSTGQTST
Put plainly: DCTPP1 inhibition assay (malachite green). The format is biochemical. Conditions: 35 nM DCTPP1, 35 μM dCTP, 20 minutes at 22° C.; read-out: IC50. The method, then:
DCTPP1 catalyzes the hydrolysis of dCTP to dCMP and PPi. By coupling the reaction to pyrophosphatase added in excess PPi is converted to Pi that can be detected by using the malachite green assay reagent. […] DCTPP1 diluted in assay buffer (100 mM Tris-acetate, 100 mM KCl, 10 mM magnesium acetate, 1 mM DTT and 0.005% Tween 20) fortified with E. coli pyrophosphatase (0.2 U/mL) is added to a final concentration of 35 nM. dCTP diluted in assay buffer is added to a final concentration of 35 μM. The reaction mixture is incubated with shaking for 20 minutes at 22° C. To 100 μl reaction mixture is added […] Malachite green assay reagent (0.095% Malachite green in 17% H2SO4, 1.5% Ammonium molybdate, 0.17% Tween 20) added followed by incubation with shaking for 15 minutes at 22° C. The absorbance of the assay plate is read at 630 nm using a SpectraMax plate reader (Molecular Devices).
Consider “5,6-dichloro-2-methyl-4-nitro-1-(4-(trifluoro-l4-boranyl)benzyl)-1H-benzo[d]imidazole [Compound 2.2.48]”, for which the half-maximal inhibitory concentration (IC50) came to 39 nM. In the case of `O=[N+]([O-])c1cccc2c1nc(C(F)(F)F)n2Cc1ccc(B(O)O)cc1` [Compound 2.2.8, (4-((4-nitro-2-(trifluoromethyl)-1H-benzo[d]imidazol-1-yl)methyl)phenyl)boronic acid], the 50% inhibitory concentration (IC50) was found to be 206 nM. On to `Cc1nc2c([N+](=O)[O-])c(F)c(F)cc2n1Cc1ccccc1` [Compound 2.2.10, 1-benzyl-5,6-difluoro-2-methyl-4-nitro-1H-benzo[d]imidazole], for which the half-inhibitory concentration (IC50) is 410 nM. Turning to `Cc1nc2c([N+](=O)[O-])c(Cl)c(Cl)cc2n1S(=O)(=O)c1ccccc1` [Compound 2.2.17, 5,6-dichloro-2-methyl-4-nitro-1-(phenylsulfonyl)-1H-benzo[d]imidazole], the IC50 amounted to 74 nM. Same read-out and setting: the same measure for `COc1ccc(Cn2c(C)nc3c([N+](=O)[O-])c(Cl)c(Cl)cc32)cc1` [Compound 2.2.20, 5,6-dichloro-1-(4-methoxybenzyl)-2-methyl-4-nitro-1H-benzo[d]imidazole]: 41 nM.

Staying with this assay, now noted: 35 nM DCTPP1, 35 μM dCTP, 20 minutes at 22° C.; read-out: IC50 (nM), class.
Regarding “1-(4-methoxybenzyl)-4-nitro-1H-benzo[d]imidazole [Compound 2.2.62]”, the IC50 was at least 1000 nM. The same measure, in the same setting: the same measure for “5,6-dichloro-2-methyl-4-nitro-1-(4-(trifluoro-l4-boranyl)benzyl)-1H-benzo[d]imidazole [Compound 2.2.48]”: under 100 nM.

Consider `COc1ccc(Cn2c(C)nc3c([N+](=O)[O-])cccc32)cc1` [Compound 2.2.1, 1-(4-methoxybenzyl)-2-methyl-4-nitro-1H-benzo[d]imidazole], for which the IC50 was at least 1000 nM. Still for that read-out and setting: the same measure for `COc1ccc(Cn2c(-c3ccccc3)nc3c([N+](=O)[O-])cccc32)cc1` [Compound 2.2.2, 1-(4-methoxybenzyl)-4-nitro-2-phenyl-1H-benzo[d]imidazole]: at least 1000 nM. On the same count and under the same terms, the same measure for `COc1ccc(Cn2c(Cc3ccccc3)nc3c([N+](=O)[O-])cccc32)cc1` [Compound 2.2.3, 2-benzyl-1-(4-methoxybenzyl)-4-nitro-1H-benzo[d]imidazole]: at least 1000 nM; for `COc1ccc(Cn2c(C(F)(F)F)nc3c([N+](=O)[O-])cccc32)cc1` [Compound 2.2.4, 1-(4-methoxybenzyl)-4-nitro-2-(trifluoromethyl)-1H-benzo[d]imidazole]: at least 1000 nM. Same read-out and setting: the same measure for `COc1ccc(Cn2c(OC)nc3c([N+](=O)[O-])cccc32)cc1` [Compound 2.2.5, 2-methoxy-1-(4-methoxybenzyl)-4-nitro-1H-benzo[d]imidazole]: at least 1000 nM; for `COCc1nc2c([N+](=O)[O-])cccc2n1Cc1ccc(OC)cc1` [Compound 2.2.6, 1-(4-methoxybenzyl)-2-(methoxymethyl)-4-nitro-1H-benzo[d]imidazole]: at least 1000 nM; for `COc1ccc(Cn2c(C(C)C)nc3c([N+](=O)[O-])cccc32)cc1` [Compound 2.2.7, 2-isopropyl-1-(4-methoxybenzyl)-4-nitro-1H-benzo[d]imidazole]: at least 1000 nM. For `O=[N+]([O-])c1cccc2c1nc(C(F)(F)F)n2Cc1ccc(B(O)O)cc1` [Compound 2.2.8, (4-((4-nitro-2-(trifluoromethyl)-1H-benzo[d]imidazol-1-yl)methyl)phenyl)boronic acid], the IC50 lay in the range of 100 to 500 nM.

As to `Cc1nc2c([N+](=O)[O-])c(F)c(F)cc2n1Cc1ccc(C#N)cc1` [Compound 2.2.11, 4-((5,6-difluoro-2-methyl-4-nitro-1H-benzo[d]imidazol-1-yl)methyl)benzonitrile], the 50% inhibitory concentration (IC50) was at least 1000 nM. As for `Cc1nc2c([N+](=O)[O-])c(F)c(F)cc2n1Cc1ccc(F)cc1` [Compound 2.2.12, 5,6-difluoro-1-(4-fluorobenzyl)-2-methyl-4-nitro-1H-benzo[d]imidazole], the 50% inhibitory concentration (IC50) is 500 to 1000 nM. The same measure, in the same setting: the same measure for `Cc1nc2c([N+](=O)[O-])c(F)c(F)cc2n1Cc1ccc(-n2cncn2)cc1` [Compound 2.2.13, 1-(4-(1H-1,2,4-triazol-1-yl)benzyl)-5,6-difluoro-2-methyl-4-nitro-1H-benzo[d]imidazole]: at least 1000 nM; for `Cc1nc2c([N+](=O)[O-])c(F)c(F)cc2n1C(C)c1ccccc1` (stereo not shown) [Compound 2.2.14, 5,6-difluoro-2-methyl-4-nitro-1-(1-phenylethyl)-1H-benzo[d]imidazole]: at least 1000 nM; for `Cc1nc2c([N+](=O)[O-])c(F)c(F)cc2n1Cc1ccc(B(O)O)cc1` [Compound 2.2.15, (4-((5,6-difluoro-2-methyl-4-nitro-1H-benzo[d]imidazol-1-yl)methyl)phenyl)boronic acid]: 500 to 1000 nM. Still for that read-out and setting: the same measure for `Cc1nc2c([N+](=O)[O-])c(Cl)c(Cl)cc2n1-c1ccccc1` [Compound 2.2.16, 5,6-dichloro-2-methyl-4-nitro-1-phenyl-1H-benzo[d]imidazole]: under 100 nM. Turning to `Cc1nc2c([N+](=O)[O-])c(Cl)c(Cl)cc2n1S(=O)(=O)c1ccccc1` [Compound 2.2.17, 5,6-dichloro-2-methyl-4-nitro-1-(phenylsulfonyl)-1H-benzo[d]imidazole], the 50% inhibitory concentration (IC50) is under 100 nM. Still for that read-out and setting: the same measure for `Cc1nc2c([N+](=O)[O-])c(Cl)c(Cl)cc2n1C(=O)c1ccccc1` [Compound 2.2.18, (5,6-dichloro-2-methyl-4-nitro-1H-benzo[d]imidazol-1-yl)(phenyl)methanone]: 100 to 500 nM. Still for that read-out and setting: the same measure for `Cc1nc2c([N+](=O)[O-])c(Cl)c(Cl)cc2n1Cc1ccccc1` [Compound 2.2.19, 1-benzyl-5,6-dichloro-2-methyl-4-nitro-1H-benzo[d]imidazole]: under 100 nM.

As to `COc1ccc(Cn2c(C)nc3c([N+](=O)[O-])c(Cl)c(Cl)cc32)cc1` [Compound 2.2.20, 5,6-dichloro-1-(4-methoxybenzyl)-2-methyl-4-nitro-1H-benzo[d]imidazole], the half-maximal inhibitory concentration (IC50) is under 100 nM.

On to `COc1cccc(Cn2c(C)nc3c([N+](=O)[O-])c(Cl)c(Cl)cc32)c1` [Compound 2.2.21, 5,6-dichloro-1-(3-methoxybenzyl)-2-methyl-4-nitro-1H-benzo[d]imidazole], for which the IC50 was 100 to 500 nM. On the same count and under the same terms, the same measure for `CC(=O)Oc1ccc(Cn2c(C)nc3c([N+](=O)[O-])c(Cl)c(Cl)cc32)cc1` [Compound 2.2.22, 4-((5,6-dichloro-2-methyl-4-nitro-1H-benzo[d]imidazol-1-yl)methyl)phenyl acetate]: under 100 nM. Still for that read-out and setting: the same measure for `Cc1nc2c([N+](=O)[O-])c(Cl)c(Cl)cc2n1Cc1ccc(O)cc1` [Compound 2.2.25, 4-((5,6-dichloro-2-methyl-4-nitro-1H-benzo[d]imidazol-1-yl)methyl)phenol]: under 100 nM. Still for that read-out and setting: the same measure for `Cc1ccc(Cn2c(C)nc3c([N+](=O)[O-])c(Cl)c(Cl)cc32)cc1` [Compound 2.2.26, 5,6-dichloro-2-methyl-1-(4-methylbenzyl)-4-nitro-1H-benzo[d]imidazole]: under 100 nM. For `Cc1nc2c([N+](=O)[O-])c(Cl)c(Cl)cc2n1Cc1ccc(C=O)cc1` [Compound 2.2.27, 4-((5,6-dichloro-2-methyl-4-nitro-1H-benzo[d]imidazol-1-yl)methyl)benzaldehyde], the 50% inhibitory concentration (IC50) was 100 to 500 nM.

On to `Cc1nc2c([N+](=O)[O-])c(Cl)c(Cl)cc2n1Cc1ccc(C=NO)cc1` [Compound 2.2.28, 4-((5,6-dichloro-2-methyl-4-nitro-1H-benzo[d]imidazol-1-yl)methyl)benzaldehyde oxime], for which the IC50 is under 100 nM. On the same count and under the same terms, the same measure for `C=CC(=O)c1ccc(Cn2c(C)nc3c([N+](=O)[O-])c(Cl)c(Cl)cc32)cc1` [Compound 2.2.30, 1-(4-((5,6-dichloro-2-methyl-4-nitro-1H-benzo[d]imidazol-1-yl)methyl)phenyl)prop-2-en-1-one]: under 100 nM; for `C=CC(=O)Nc1ccc(Cn2c(C)nc3c([N+](=O)[O-])c(Cl)c(Cl)cc32)cc1` [Compound 2.2.32, N-(4-((5,6-dichloro-2-methyl-4-nitro-1H-benzo[d]imidazol-1-yl)methyl)phenyl)acrylamide]: under 100 nM; for `Cc1n[nH]c(C)c1CCn1c(C)nc2c([N+](=O)[O-])c(Cl)c(Cl)cc21` [Compound 2.2.33, 5,6-dichloro-1-(2-(3,5-dimethyl-1H-pyrazol-4-yl)ethyl)-2-methyl-4-nitro-1H-benzo[d]imidazole]: 100 to 500 nM. The same measure, in the same setting: the same measure for `Cc1nc2c([N+](=O)[O-])c(Cl)c(Cl)cc2n1Cc1ccc(-n2cccn2)cc1` [Compound 2.2.34, 1-(4-(1H-pyrazol-1-yl)benzyl)-5,6-dichloro-2-methyl-4-nitro-1H-benzo[d]imidazole]: under 100 nM; for `Cc1nc2c([N+](=O)[O-])c(Cl)c(Cl)cc2n1Cc1ccc(-n2cncn2)cc1` [Compound 2.2.35, 1-(4-(1H-1,2,4-triazol-1-yl)benzyl)-5,6-dichloro-2-methyl-4-nitro-1H-benzo[d]imidazole]: 500 to 1000 nM; for `Cc1nc2c([N+](=O)[O-])c(Cl)c(Cl)cc2n1Cc1ccc(C(=O)O)cc1` [Compound 2.2.37, 4-((5,6-dichloro-2-methyl-4-nitro-1H-benzo[d]imidazol-1-yl)methyl)benzoic acid]: under 100 nM.

For `COC(=O)c1ccc(Cn2c(C)nc3c([N+](=O)[O-])c(Cl)c(Cl)cc32)cc1` [Compound 2.2.38, methyl 4-((5,6-dichloro-2-methyl-4-nitro-1H-benzo[d]imidazol-1-yl)methyl)benzoate], the IC50 lay within 100 to 500 nM.

With `Cc1nc2c([N+](=O)[O-])c(Cl)c(Cl)cc2n1Cc1ccc(C(N)=O)cc1` [Compound 2.2.39, 4-((5,6-dichloro-2-methyl-4-nitro-1H-benzo[d]imidazol-1-yl)methyl)benzamide], the IC50 was under 100 nM. Same read-out and setting: the same measure for `Cc1nc2c([N+](=O)[O-])c(Cl)c(Cl)cc2n1Cc1ccc(C#N)cc1` [Compound 2.2.40, 4-((5,6-dichloro-2-methyl-4-nitro-1H-benzo[d]imidazol-1-yl)methyl)benzonitrile]: 100 to 500 nM.
